Measured values reported in publication PMC4656030 (Journal of pharmacokinetics and pharmacodynamics, 2015).

Legend:
[1] = after a therapeutic dose; cited from earlier work
[2] = target: T1, porcine kidney diamine oxidase (Sus scrofa, UniProt Q9TRC7); assay: Diamine oxidase spectrophotometric assay with putrescine as substrate; type: biochemical
T1 sequence (Q9TRC7 25-755): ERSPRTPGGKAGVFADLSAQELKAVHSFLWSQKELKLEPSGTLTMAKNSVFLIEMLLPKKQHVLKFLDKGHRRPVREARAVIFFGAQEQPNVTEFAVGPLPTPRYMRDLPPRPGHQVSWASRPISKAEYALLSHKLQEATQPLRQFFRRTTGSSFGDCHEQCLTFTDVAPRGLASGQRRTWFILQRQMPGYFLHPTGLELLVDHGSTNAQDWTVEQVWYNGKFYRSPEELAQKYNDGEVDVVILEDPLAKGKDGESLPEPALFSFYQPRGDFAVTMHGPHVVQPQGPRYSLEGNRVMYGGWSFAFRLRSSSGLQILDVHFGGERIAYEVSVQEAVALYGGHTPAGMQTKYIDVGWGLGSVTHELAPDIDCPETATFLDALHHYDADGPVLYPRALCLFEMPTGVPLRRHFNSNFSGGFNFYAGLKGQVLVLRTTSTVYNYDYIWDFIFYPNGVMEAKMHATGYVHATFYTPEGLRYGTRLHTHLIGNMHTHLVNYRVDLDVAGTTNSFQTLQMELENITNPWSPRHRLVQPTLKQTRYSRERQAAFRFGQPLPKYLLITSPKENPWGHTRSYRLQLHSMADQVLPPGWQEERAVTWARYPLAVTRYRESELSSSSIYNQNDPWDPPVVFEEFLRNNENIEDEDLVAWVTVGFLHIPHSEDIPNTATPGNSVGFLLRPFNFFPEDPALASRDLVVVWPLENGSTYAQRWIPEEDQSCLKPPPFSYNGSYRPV

porcine diamine oxidase = settings: read-out: reported KM of putrescine; cited from earlier work
diamine oxidase = settings: read-out: Ki for diamine oxidase; cited from earlier work
[3] = substrate: NCCCCN; assay: purified protein, by the assay type; settings: other: porcine DAO; pH 7.0; 37.0 °C

Molecule: CN(C)C(=N)N=C(N)N [metformin, Metformin]
- predicted concentration in the intestinal lumen [1]: 10 to 20 mM
- Ki [2]: 8.6 ± 3.1 mM
- type of DAO inhibition ([2]; porcine DAO): mixed-type inhibition

Molecule: NCCCCN [putrescine]
- Km (porcine diamine oxidase): 350 µM

Molecule: N=C(N)NN [aminoguanidine]
- % inhibition of porcine DAO ([2]; inhibitor 100 μM, putrescine 100 μM as substrate): greater than 80%

Molecule: [H]/N=C(/N)N/C(=N/[H])NCCc1ccccc1 [phenformin]
- Ki (diamine oxidase): 4 mM

B1: porcine kidney diamine oxidase (Sus scrofa) (protein)
chain: ERSPRTPGGKAGVFADLSAQELKAVHSFLWSQKELKLEPSGTLTMAKNSVFLIEMLLPKKQHVLKFLDKGHRRPVREARAVIFFGAQEQPNVTEFAVGPLPTPRYMRDLPPRPGHQVSWASRPISKAEYALLSHKLQEATQPLRQFFRRTTGSSFGDCHEQCLTFTDVAPRGLASGQRRTWFILQRQMPGYFLHPTGLELLVDHGSTNAQDWTVEQVWYNGKFYRSPEELAQKYNDGEVDVVILEDPLAKGKDGESLPEPALFSFYQPRGDFAVTMHGPHVVQPQGPRYSLEGNRVMYGGWSFAFRLRSSSGLQILDVHFGGERIAYEVSVQEAVALYGGHTPAGMQTKYIDVGWGLGSVTHELAPDIDCPETATFLDALHHYDADGPVLYPRALCLFEMPTGVPLRRHFNSNFSGGFNFYAGLKGQVLVLRTTSTVYNYDYIWDFIFYPNGVMEAKMHATGYVHATFYTPEGLRYGTRLHTHLIGNMHTHLVNYRVDLDVAGTTNSFQTLQMELENITNPWSPRHRLVQPTLKQTRYSRERQAAFRFGQPLPKYLLITSPKENPWGHTRSYRLQLHSMADQVLPPGWQEERAVTWARYPLAVTRYRESELSSSSIYNQNDPWDPPVVFEEFLRNNENIEDEDLVAWVTVGFLHIPHSEDIPNTATPGNSVGFLLRPFNFFPEDPALASRDLVVVWPLENGSTYAQRWIPEEDQSCLKPPPFSYNGSYRPV
- Km [3]: 330 ± 160 µM
